In ChEMBL document CHEMBL1201862, “PubChem BioAssay data set” (2004):
Activity calls are given as the source filed them.

Key:
Albumin = Albumin (Bos taurus, UniProt P02769); experiment: Counterscreen for inhibitors of T-cell receptor (TCR)-CD3 interaction: Fluorescence-based biochemical high throughput dose response assay to identify inhibitors of T-cell receptor (TCR)-CD3 interaction using a TAMRA-labeled BSA probe.; type: functional
[1] = target: Peroxisome proliferator-activated receptor gamma/Nuclear receptor corepressor 2 (Homo sapiens, UniProt P37231+Q9Y618); experiment: Counterscreen for NR2E3 inverse agonists: TR-FRET-based biochemical high throughput dose response assay to identify inverse agonists of the interaction between peroxisome proliferator-activated receptor gamma (PPARg) and nuclear receptor co-repressor 2 (NCOR2).; type: functional
[2] = target: Photoreceptor-specific nuclear receptor (Homo sapiens, UniProt Q9Y5X4); experiment: NR2E3 inverse agonists, dose response, biochemical, TR-FRET (AID 463256); type: functional
[3] = target: Induced myeloid leukemia cell differentiation protein Mcl-1 (Homo sapiens, UniProt Q07820); type: functional
Nonstructural protein 1 = Nonstructural protein 1 (Influenza A virus, UniProt Q194T2); type: functional, Influenza A virus (A/California/07/2009(H1N1))
[4] = target: T1, RNA-editing ligase 1, mitochondrial (Trypanosoma brucei brucei, UniProt P86926); experiment: TbREL1 ligase inhibitors, dose response, biochemical, fluorescence, Trypanosoma brucei (AID 1117295); type: functional
T1 sequence (P86926 whole entry): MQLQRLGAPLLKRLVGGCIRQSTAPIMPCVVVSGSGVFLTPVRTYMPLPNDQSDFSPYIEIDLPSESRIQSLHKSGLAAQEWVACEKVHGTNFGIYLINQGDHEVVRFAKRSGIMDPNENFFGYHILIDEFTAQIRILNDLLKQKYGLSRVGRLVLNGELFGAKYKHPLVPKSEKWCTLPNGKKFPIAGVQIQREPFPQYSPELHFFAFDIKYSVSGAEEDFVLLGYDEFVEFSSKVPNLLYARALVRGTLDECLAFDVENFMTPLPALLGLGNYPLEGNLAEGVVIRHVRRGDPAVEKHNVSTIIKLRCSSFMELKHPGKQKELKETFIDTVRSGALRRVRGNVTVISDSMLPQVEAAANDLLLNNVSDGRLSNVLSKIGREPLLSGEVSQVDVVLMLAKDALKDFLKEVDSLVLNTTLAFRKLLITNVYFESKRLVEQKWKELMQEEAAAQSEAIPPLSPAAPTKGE

[5] = target: Disintegrin and metalloproteinase domain-containing protein 17 (Homo sapiens, UniProt P78536); experiment: exosite inhibitors of ADAM17, dose response, biochemical (AID 743260)
[6] = ADAM10 protease inhibitors, dose response, selectivity assay for ADAM17 exosite inhibitor project, biochemical, FRET peptide substrate, recombinant human ADAM10 (AID 743259);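 note: ADAM10 enzyme cleaving a FRET peptide substrate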
Kallikrein-7 = Kallikrein-7 (Homo sapiens, UniProt P49862); experiment: Fluorescence Intensity-based biochemical primary high throughput dose response assay to identify activators of kallikrein-7 (K7) zymogen.
[7] = inhibitors of firefly luciferase expression or activity, dose response, H4 neuroglioma cells, luminescence (AID 1990); type: functional, cell-based
[8] = Luminescence Cell-Based Dose Response HTS to Identify Inhibitors of 5'UTR Stem-Loop Driven Prion Protein mRNA Translation in H4 Neuroglioblastoma Cells. [Related pubchem assays: 1827 (Project Summary), 1813 (Primary HTS)]; type: functional
[9] = inhibitors of SNCA 5'UTR-driven reporter translation, confirmation, H4 neuroglioma cells, luminescence (AID 1988); type: functional, cell-based
[10] = target: NAD-dependent protein deacylase sirtuin-5, mitochondrial (Homo sapiens, UniProt Q9NXA8); experiment: SIRT5 desuccinylase inhibitors, dose response, biochemical, fluorescence imaging, cherry-pick, set 5 (AID 720591);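 note: desuccinylation of succinyl peptide AMC substrate read as fluorescence after trypsin release; potency of inhibitors that lower fluorescence and may act on trypsin instead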
[11] = target: Peroxisome proliferator-activated receptor gamma/Nuclear receptor coactivator 3 (Homo sapiens, UniProt P37231); experiment: TR-FRET dose response biochemical High Throughput Screening assay for agonists of the steroid receptor coactivator 3 (SRC-3) recruitment by the peroxisome proliferator-activated receptor gamma (PPAR gamma): non-selective agonists. [Related pubchem assays: 1301 (Confirmation screen.), 1048 (Primary screen.)]; type: functional
[12] = target: Peroxisome proliferator-activated receptor gamma/Nuclear receptor coactivator 2 (Homo sapiens, UniProt P37231); experiment: TR-FRET dose response biochemical High Throughput Screening assay for agonists of the steroid receptor coactivator 2 (SRC-2) recruitment by the peroxisome proliferator-activated receptor gamma (PPAR gamma): non-selective agonists. [Related pubchem assays: 1297, 1032 ]; type: functional
Major prion protein = Major prion protein (Homo sapiens, UniProt P04156); type: functional, cell-based
[13] = target: T2, DNA repair protein RAD52 homolog (Homo sapiens, UniProt P43351); type: functional, biochemical
T2 sequence (P43351 whole entry): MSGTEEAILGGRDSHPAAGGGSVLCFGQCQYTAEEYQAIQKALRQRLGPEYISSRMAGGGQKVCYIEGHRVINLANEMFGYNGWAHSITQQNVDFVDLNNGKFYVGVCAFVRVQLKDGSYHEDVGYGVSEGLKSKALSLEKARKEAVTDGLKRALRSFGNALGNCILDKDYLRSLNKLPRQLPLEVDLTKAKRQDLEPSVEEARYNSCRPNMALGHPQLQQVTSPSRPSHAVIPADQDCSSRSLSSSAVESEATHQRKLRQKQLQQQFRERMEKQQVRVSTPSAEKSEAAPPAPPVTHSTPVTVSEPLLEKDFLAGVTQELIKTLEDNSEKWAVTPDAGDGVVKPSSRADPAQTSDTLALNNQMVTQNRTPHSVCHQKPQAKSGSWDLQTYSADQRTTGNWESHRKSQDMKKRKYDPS

[14] = inhibitors of PGC1a acetylation in cells, dose response, cell-based, cherry-picked samples (AID 720514); type: functional;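 note: potency may reflect raised or lowered acetylation signal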
Paired box protein Pax-8 = Paired box protein Pax-8 (Homo sapiens, UniProt Q06710); experiment: inhibitors of PAX8-driven TPO luciferase reporter, dose response, RMG-I cells, cherry-pick (AID 687027); type: functional, cell-based;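 note: luciferase reporter driven by Pax8 target thyroperoxidase promoter measured by SteadyGlo luminescence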
[15] = IGROV1 ovarian cancer cell cytotoxicity, dose response, PAX8 inhibitor project, plate reader, dry powder samples (AID 743043); type: functional, cell-based; conditions: IGROV-1
[16] = cytotoxicity in OVCAR8 ovarian cancer cells, dose response, PAX8 project, cell-based, plate reader, dry powder samples (AID 743197); type: functional; conditions: OVCAR-8
[17] = NIH:OVCAR-3 ovarian cancer cell cytotoxicity, dose response, PAX8 inhibitor project, plate reader, dry powder samples (AID 743044); type: functional, cell-based
[18] = T. cruzi growth inhibition in host cells, dose response, cell-based, plate reader, dry powder, set 2 (AID 652275); type: functional
[19] = P. falciparum 3D7-ScDHODH growth inhibitors, dose response, SYBR Green, dry powder samples (AID 1159570); type: functional, cell-based;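 note: parasite growth measured after 72 hours of compound exposure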
[20] = HepG2 cell cytotoxicity, dose response, cytotoxicity control, plate reader, dry powder samples (AID 1159569); type: functional, cell-based;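 note: inhibitor potency with signal falling toward the positive control level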
[21] = P. falciparum Dd2 growth inhibitors, dose response, SYBR Green, cherry-picked samples (AID 1159567); type: functional, cell-based
[22] = P. falciparum Dd2 growth inhibitors, dose response, SYBR Green, dry powder samples (AID 1159566); type: functional, cell-based;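 note: potency for growth inhibition with lower SYBR green DNA signal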
[23] = HepG2 cell cytotoxicity, dose response, cytotoxicity control, cherry-picked samples (AID 1159577); type: functional, cell-based
[24] = P. falciparum ATP4 D1247Y mutant growth inhibitors, dose response, NITD609-resistant line, SYBR Green, dry powder (AID 1159571); type: functional, cell-based;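 note: parasites synchronized at ring stage by sorbitol before testing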

Chain of Photoreceptor-specific nuclear receptor (Q9Y5X4 whole entry): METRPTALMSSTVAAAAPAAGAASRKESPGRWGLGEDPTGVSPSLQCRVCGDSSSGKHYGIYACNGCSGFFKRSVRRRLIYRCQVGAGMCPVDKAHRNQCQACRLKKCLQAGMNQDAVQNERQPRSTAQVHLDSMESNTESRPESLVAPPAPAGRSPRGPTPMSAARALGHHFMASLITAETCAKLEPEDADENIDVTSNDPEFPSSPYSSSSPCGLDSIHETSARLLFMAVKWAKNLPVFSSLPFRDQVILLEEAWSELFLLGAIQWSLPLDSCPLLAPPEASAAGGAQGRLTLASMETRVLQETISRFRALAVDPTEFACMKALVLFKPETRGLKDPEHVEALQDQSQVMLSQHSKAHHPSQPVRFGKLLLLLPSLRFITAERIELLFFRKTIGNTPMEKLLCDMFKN
Chain of Disintegrin and metalloproteinase domain-containing protein 17 (P78536 whole entry, the tested form may be a part): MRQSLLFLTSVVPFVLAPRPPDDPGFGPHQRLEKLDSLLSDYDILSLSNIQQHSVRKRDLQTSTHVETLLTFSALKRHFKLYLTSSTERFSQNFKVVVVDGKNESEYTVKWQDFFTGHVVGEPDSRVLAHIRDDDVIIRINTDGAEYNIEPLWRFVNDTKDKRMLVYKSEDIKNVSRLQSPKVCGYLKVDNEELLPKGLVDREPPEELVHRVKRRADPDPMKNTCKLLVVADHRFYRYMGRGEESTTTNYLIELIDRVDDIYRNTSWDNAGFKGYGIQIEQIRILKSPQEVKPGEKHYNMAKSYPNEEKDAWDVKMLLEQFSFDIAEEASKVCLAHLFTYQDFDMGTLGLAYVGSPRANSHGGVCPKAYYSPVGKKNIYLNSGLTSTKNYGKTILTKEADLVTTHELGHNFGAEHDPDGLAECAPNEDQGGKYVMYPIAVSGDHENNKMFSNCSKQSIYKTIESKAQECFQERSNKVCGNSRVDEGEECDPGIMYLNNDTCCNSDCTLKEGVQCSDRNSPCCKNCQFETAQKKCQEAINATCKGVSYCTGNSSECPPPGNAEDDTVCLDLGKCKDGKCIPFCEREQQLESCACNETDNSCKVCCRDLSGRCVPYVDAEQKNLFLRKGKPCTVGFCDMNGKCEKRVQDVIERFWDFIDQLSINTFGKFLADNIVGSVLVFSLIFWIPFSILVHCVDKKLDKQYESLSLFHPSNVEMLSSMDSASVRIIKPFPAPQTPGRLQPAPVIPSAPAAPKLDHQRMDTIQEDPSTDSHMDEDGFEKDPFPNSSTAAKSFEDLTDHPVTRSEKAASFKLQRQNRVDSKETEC
Chain of Paired box protein Pax-8 (Q06710 whole entry): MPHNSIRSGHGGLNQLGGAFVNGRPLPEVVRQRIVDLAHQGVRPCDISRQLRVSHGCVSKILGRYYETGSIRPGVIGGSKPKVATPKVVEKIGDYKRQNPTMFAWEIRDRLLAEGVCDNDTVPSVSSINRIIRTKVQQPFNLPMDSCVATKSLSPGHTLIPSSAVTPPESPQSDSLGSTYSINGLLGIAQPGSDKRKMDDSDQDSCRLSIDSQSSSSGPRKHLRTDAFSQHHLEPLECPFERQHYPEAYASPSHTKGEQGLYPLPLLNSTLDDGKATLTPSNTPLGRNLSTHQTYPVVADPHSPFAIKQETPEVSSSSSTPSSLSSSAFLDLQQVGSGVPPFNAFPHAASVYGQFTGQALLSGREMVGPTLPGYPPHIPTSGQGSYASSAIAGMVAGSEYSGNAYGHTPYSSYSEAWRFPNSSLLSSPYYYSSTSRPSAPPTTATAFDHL
Chain of Peroxisome proliferator-activated receptor gamma/Nuclear receptor corepressor 2 (P37231 whole entry): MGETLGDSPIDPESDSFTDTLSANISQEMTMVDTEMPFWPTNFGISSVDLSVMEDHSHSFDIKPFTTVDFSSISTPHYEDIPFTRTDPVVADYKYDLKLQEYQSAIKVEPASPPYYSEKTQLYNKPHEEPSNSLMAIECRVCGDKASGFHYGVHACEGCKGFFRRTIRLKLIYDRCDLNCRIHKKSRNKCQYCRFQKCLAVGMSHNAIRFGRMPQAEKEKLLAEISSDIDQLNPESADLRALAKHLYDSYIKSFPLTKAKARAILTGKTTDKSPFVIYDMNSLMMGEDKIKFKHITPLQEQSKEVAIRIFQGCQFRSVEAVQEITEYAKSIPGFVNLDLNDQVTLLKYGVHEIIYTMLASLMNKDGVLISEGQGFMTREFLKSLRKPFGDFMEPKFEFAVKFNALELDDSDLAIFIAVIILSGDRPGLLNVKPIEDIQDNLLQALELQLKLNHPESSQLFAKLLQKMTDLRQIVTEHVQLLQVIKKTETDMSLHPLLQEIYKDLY
Chain of Peroxisome proliferator-activated receptor gamma/Nuclear receptor corepressor 2 (Q9Y618 whole entry): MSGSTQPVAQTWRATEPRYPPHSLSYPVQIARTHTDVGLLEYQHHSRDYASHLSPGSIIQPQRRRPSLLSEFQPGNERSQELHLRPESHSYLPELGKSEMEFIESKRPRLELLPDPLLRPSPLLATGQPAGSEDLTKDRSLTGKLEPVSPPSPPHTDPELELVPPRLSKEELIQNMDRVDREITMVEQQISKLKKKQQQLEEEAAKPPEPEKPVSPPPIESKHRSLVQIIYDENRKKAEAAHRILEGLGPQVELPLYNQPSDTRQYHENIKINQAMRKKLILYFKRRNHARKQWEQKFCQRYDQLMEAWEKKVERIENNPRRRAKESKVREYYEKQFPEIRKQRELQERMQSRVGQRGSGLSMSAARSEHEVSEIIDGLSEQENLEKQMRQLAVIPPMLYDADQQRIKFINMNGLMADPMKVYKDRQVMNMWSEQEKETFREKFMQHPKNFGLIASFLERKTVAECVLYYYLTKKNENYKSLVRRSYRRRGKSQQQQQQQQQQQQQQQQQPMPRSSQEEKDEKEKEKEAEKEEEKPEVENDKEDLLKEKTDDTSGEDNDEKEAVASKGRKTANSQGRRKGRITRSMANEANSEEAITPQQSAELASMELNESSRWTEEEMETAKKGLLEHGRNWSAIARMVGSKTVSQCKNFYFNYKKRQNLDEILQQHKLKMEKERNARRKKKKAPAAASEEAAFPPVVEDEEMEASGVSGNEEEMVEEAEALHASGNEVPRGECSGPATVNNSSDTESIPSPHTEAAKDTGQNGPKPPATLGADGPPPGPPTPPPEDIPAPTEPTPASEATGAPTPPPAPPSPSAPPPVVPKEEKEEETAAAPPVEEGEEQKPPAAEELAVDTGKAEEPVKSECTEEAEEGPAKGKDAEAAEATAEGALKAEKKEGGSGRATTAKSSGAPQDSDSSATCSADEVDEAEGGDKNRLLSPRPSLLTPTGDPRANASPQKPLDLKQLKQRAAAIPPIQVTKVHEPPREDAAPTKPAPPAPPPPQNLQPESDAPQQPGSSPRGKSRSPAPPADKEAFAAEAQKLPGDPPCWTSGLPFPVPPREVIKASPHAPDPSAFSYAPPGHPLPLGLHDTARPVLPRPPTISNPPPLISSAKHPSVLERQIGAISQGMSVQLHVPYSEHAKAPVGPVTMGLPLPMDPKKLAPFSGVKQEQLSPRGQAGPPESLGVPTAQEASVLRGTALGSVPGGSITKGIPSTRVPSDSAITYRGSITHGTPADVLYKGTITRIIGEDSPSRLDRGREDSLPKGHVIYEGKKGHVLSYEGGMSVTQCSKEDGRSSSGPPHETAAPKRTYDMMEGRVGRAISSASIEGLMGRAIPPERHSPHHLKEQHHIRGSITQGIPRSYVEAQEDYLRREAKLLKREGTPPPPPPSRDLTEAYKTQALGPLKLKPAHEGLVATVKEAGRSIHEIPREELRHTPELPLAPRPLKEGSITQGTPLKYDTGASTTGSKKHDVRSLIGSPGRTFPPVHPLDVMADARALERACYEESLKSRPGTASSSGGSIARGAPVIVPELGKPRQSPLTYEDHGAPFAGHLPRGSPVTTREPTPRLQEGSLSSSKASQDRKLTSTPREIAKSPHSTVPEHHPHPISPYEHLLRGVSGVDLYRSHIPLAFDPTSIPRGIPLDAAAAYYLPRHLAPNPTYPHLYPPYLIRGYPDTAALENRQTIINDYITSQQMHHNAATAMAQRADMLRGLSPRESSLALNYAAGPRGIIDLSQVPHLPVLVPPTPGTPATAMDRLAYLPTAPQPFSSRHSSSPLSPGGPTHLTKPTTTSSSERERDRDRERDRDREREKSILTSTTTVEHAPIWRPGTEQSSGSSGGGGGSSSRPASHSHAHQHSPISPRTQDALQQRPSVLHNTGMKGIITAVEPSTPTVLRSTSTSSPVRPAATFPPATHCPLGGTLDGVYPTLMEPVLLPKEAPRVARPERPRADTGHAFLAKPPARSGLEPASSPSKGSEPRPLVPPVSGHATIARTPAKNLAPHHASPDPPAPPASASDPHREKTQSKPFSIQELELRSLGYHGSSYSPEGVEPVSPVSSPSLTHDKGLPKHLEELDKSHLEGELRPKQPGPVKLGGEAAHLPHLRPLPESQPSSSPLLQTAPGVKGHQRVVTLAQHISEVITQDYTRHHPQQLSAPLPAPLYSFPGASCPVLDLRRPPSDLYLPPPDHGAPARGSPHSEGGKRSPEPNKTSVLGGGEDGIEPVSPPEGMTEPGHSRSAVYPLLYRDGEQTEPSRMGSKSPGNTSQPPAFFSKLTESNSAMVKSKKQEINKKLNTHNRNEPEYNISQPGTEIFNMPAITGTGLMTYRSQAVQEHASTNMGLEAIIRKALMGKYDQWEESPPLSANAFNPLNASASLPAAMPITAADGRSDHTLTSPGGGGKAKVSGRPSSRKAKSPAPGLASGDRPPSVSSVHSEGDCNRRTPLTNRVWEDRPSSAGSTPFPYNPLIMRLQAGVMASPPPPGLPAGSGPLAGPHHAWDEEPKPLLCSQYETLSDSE
Chain of NAD-dependent protein deacylase sirtuin-5, mitochondrial (Q9NXA8 whole entry): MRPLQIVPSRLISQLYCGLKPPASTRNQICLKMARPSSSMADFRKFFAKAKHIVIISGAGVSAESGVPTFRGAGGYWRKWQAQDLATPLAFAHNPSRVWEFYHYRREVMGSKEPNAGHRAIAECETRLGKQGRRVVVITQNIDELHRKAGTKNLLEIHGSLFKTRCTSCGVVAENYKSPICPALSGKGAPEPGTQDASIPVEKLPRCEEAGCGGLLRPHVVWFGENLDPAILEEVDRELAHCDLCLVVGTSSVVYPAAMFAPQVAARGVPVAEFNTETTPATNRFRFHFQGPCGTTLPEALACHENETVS

SMILES: O=C(CSc1nc2ccccc2c(=O)n1-c1ccc(F)c(Cl)c1)Nc1cccc(S(=O)(=O)N2CCOCC2)c1
- IC50 (Albumin): > 94.2 µM (inactive)

SMILES: Cc1csc(NC(=O)COc2ccc3c(C)cc(=O)oc3c2)n1
- IC50 [1]: > 39.8 µM (not active)
- IC50 [2]: 7.06 µM (active)

SMILES: Cc1n[nH]c(=S)n(NC(=O)/C=C/C(=O)Nn2c(=S)[nH]nc(C)c2=O)c1=O
- IC50 [3]: 4.67 µM (active)
- IC50 (Nonstructural protein 1): 7.29 µM (active)
- IC50 [4]: 63.6 µM (inactive)

SMILES: COc1ccc(OC)c(NC(=O)COC(=O)Cc2ccc(-c3ccccc3)cc2)c1
- IC50 [5]: > 69.5 µM (inactive)
- IC50 [6]: > 69.5 µM (inactive)

SMILES: Cc1cc(C)c2c(n1)nn1c(NCCN3CCOCC3)cc(C)nc21
- EC50 (Kallikrein-7): 34.8 µM (inactive)

SMILES: COc1ccc(C2C3=C(O)CC(C)(C)CC3=NC(C)=C2C(=O)N2CCOCC2)c(OC)c1 (stereo not given)
- EC50 (Kallikrein-7): 52.4 µM (inactive)

SMILES: CCOC(=O)c1c(-c2ccccc2)csc1NC(=O)CSc1nncs1
- EC50 [7]: 15.8 µM (active)
- EC50 [8]: > 120 µM (not active)
- EC50 [9]: 30.6 µM (active)
- IC50 [5]: > 69.5 µM (inactive)
- IC50 [6]: > 69.5 µM (inactive)

SMILES: COc1cccc(-c2cc(C(=O)Nc3cc(C)on3)no2)c1
- IC50 [1]: > 39.8 µM (not active)
- IC50 [2]: > 39.8 µM (not active)

SMILES: Cc1cccc(NC(=O)N2CCCC(CNC(=O)c3ccccc3Cl)C2)c1C (stereo not given)
- AC50 [10]: > 30 µM (inactive)

SMILES: O=C(CN1C(=O)NC2(CCCc3ccccc32)C1=O)NCC(F)(F)F (stereo not given)
- IC50 [1]: 7.85 µM (active)
- IC50 [2]: 8.55 µM (active)

SMILES: O=C(Oc1ccc(Oc2ccccc2)cc1)N1CCC(O)CC1
- AC50 [10]: > 30 µM (inactive)

SMILES: N#CC1=C2SCN(Cc3ccccc3)CN2C(=O)CC1c1cccs1 (stereo not given)
- EC50 [11]: > 79.4 µM (not active)
- EC50 [12]: > 79.4 µM (not active)
- IC50 (Major prion protein): > 138 µM (inactive)
- IC50 (cells): > 138 µM (inactive)

SMILES: COCCN1CCn2c(nc3cc(Nc4nnc(C)c5ccccc45)ccc32)C1
- AC50 [13]: 11.9 µM (active)

SMILES: CC(C)OC(=O)CSc1nc(Cc2ccccc2)nc2ccccc12
- IC50 (Major prion protein): 4.45 µM (active)
- IC50 (cells): > 138 µM (inactive)

SMILES: CC1CCCN(CC(=O)N2CCCc3ccccc32)C1.[O-][Cl+3]([O-])([O-])O (stereo not given)
- AC50 [14]: 27.1 µM (active)

SMILES: NCCCC[C@H]1CN=C(S)N1CCCCC1CCCCC1
- AC50 [13]: 10.9 µM (active)

SMILES: Cc1ccc(CN2C(=O)[C@H]3Cc4c([nH]c5ccccc45)C(C)(C)N3C2=O)cc1
- IC50 [5]: > 69.5 µM (inactive)
- IC50 [6]: > 69.5 µM (inactive)

SMILES: CCN(CC)CCNC(=O)C(=O)NCC1OCCN1S(=O)(=O)c1cccs1 (stereo not given)
- AC50 [13]: 29.3 µM (active)

SMILES: Cc1cc(NC(=O)CSc2nnc3ccc(-c4ccccc4)nn23)no1
- AC50 [10]: > 30 µM (inactive)

SMILES: C[C@H]1CCCCO[C@H](CN(C)Cc2ccc(C(F)(F)F)cc2)[C@@H](C)CN([C@@H](C)CO)C(=O)c2cc(NS(=O)(=O)c3ccc(Cl)cc3)ccc2O1
- AC50 (Paired box protein Pax-8): 4.73 µM (active)
- AC50 [15]: 36 µM (active)
- AC50 [16]: > 70 µM (inactive)

SMILES: C[C@@H]1CCCCO[C@H](CN(C)Cc2ccc(C(F)(F)F)cc2)[C@@H](C)CN([C@@H](C)CO)C(=O)c2cc(NS(=O)(=O)c3ccc(F)cc3)ccc2O1
- AC50 (Paired box protein Pax-8): 8.57 µM (active)
- AC50 [17]: 21.5 µM (active)
- AC50 [15]: 31 µM (active)
- AC50 [16]: 29.7 µM (active)

SMILES: C[C@@H]1CN([C@H](C)CO)C(=O)c2cc(NC(=O)Nc3ccc(F)cc3)ccc2O[C@@H](C)CCCCO[C@H]1CN(C)C(=O)NC1CCCCC1
- AC50 (Paired box protein Pax-8): 6.55 µM (active)
- AC50 [17]: 43.1 µM (active)

SMILES: CCC(=O)N1CC[C@@H]2[C@H]1c1cc(Br)ccc1N(C)[C@@H]2CO
- AC50 [18]: 11.7 µM (active)

SMILES: CC(C)N1C[C@@H](CN(C)Cc2ccc(Cl)cc2)Oc2c(C(=O)Nc3ccnnc3)cccc2C1=O
- AC50 [18]: 0.299 µM (active)

SMILES: CC(C)N1CC2(CN(Cc3ccc(F)c(F)c3)C2)Oc2c(NC(=O)c3ccncc3)cccc2C1=O
- AC50 [18]: 1.05 µM (active)

SMILES: COC(=O)C1=C(C)N(Cc2ccc(C(F)(F)F)cc2)C(NCc2ccccc2C(F)(F)F)=NC1c1ccc(Cl)cc1 (stereo not given)
- IC50 [4]: > 96.6 µM (inactive)

SMILES: COC(=O)C1=C(C)N(Cc2cccc(C(F)(F)F)c2)C(NCc2ccccc2C(F)(F)F)=NC1c1cccc(F)c1 (stereo not given)
- IC50 [4]: > 96.6 µM (inactive)

SMILES: CCCc1cn(CC[C@@H]2CC[C@@H](NS(=O)(=O)c3ccc(-c4ccccc4)cc3)[C@H](CO)O2)nn1
- AC50 [19]: 2.17 µM (active)
- AC50 [20]: 37.5 µM (active)
- AC50 [21]: 1.7 µM (active)
- AC50 [22]: 1.99 µM (active)
- AC50 [23]: 23.3 µM (active)
- AC50 [24]: 1.82 µM (active)

SMILES: C(=C\c1ccc([C@H]2[C@@H]3CN(Cc4cccnc4)C[C@H]2N3)cc1)/c1ccccc1
- AC50 [19]: 4.3 µM (active)
- AC50 [20]: 18.6 µM (active)
- AC50 [21]: 2.81 µM (active)
- AC50 [22]: 3.79 µM (active)
- AC50 [23]: 27.5 µM (active)
- AC50 [24]: 3.95 µM (active)

SMILES: OC[C@@H]1CC[C@@H]2O[C@H](CCc3ccc(C#CCc4ccccc4)cc3)[C@H](n3cc(-c4ccccc4)nn3)C[C@@H]2O1
- AC50 [19]: 1.79 µM (active)
- AC50 [20]: > 100 µM (inactive)
- AC50 [21]: 1.45 µM (active)
- AC50 [22]: 0.879 µM (active)
- AC50 [24]: 1.53 µM (active)
